Source: PubChem BioAssay (NCI)
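Exposure lasted 48 hours, with cells grown in 96-well plates and compounds tested at five concentrations. Here, GI50 denotes the concentration required for 50% inhibition of growth. TGI: concentration producing complete growth inhibition.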

What was measured:
Assay in all cases: NCI-60 cell line screen, 48 h; in the data active = GI50 below about 0.43 µM; inactive = the rest
TK-10 renal = tested on: TK-10 renal
SK-MEL-2 melanoma = tested on: SK-MEL-2 melanoma
RXF 393 renal = tested on: RXF 393 renal
LOX IMVI melanoma = tested on: LOX IMVI melanoma
SN12C renal = tested on: SN12C renal
SNB-19 CNS = tested on: SNB-19 CNS
K-562 leukemia = tested on: K-562 leukemia
M14 melanoma = tested on: M14 melanoma
EKVX NSCLC = tested on: EKVX NSCLC
T-47D breast = tested on: T-47D breast
CCRF-CEM leukemia = tested on: CCRF-CEM leukemia
HCT-15 colon = tested on: HCT-15 colon
SK-MEL-5 melanoma = tested on: SK-MEL-5 melanoma
IGROV1 ovarian = tested on: IGROV1 ovarian
OVCAR-5 ovarian = tested on: OVCAR-5 ovarian
DU-145 prostate = tested on: DU-145 prostate
UO-31 renal = tested on: UO-31 renal
OVCAR-3 ovarian = tested on: OVCAR-3 ovarian
SW-620 colon = tested on: SW-620 colon
KM12 colon = tested on: KM12 colon
HL-60(TB) leukemia = tested on: HL-60(TB) leukemia
SK-MEL-28 melanoma = tested on: SK-MEL-28 melanoma
BT-549 breast = tested on: BT-549 breast
HCC-2998 colon = tested on: HCC-2998 colon
UACC-257 melanoma = tested on: UACC-257 melanoma
HT29 colon = tested on: HT29 colon
NCI-H522 lung = tested on: NCI-H522 lung
COLO 205 colon = tested on: COLO 205 colon
SF-268 CNS = tested on: SF-268 CNS
A498 renal = tested on: A498 renal
SF-295 CNS = tested on: SF-295 CNS
MDA-MB-435 = tested on: MDA-MB-435
ACHN renal = tested on: ACHN renal
OVCAR-8 ovarian = tested on: OVCAR-8 ovarian
OVCAR-4 ovarian = tested on: OVCAR-4 ovarian
NCI/ADR-RES ovarian = tested on: NCI/ADR-RES ovarian
SNB-75 CNS = tested on: SNB-75 CNS
CAKI-1 renal = tested on: CAKI-1 renal
NCI-H226 lung = tested on: NCI-H226 lung
HOP-92 NSCLC = tested on: HOP-92 NSCLC
SR leukemia = tested on: SR leukemia
SF-539 CNS = tested on: SF-539 CNS
HOP-62 NSCLC = tested on: HOP-62 NSCLC
NCI-H460 lung = tested on: NCI-H460 lung
U251 CNS = tested on: U251 CNS
UACC-62 melanoma = tested on: UACC-62 melanoma
HS 578T breast = tested on: HS 578T breast
MCF7 breast = tested on: MCF7 breast
PC-3 prostate = tested on: PC-3 prostate
MALME-3M melanoma = tested on: MALME-3M melanoma
MDA-MB-231 breast = tested on: MDA-MB-231 breast
SK-OV-3 ovarian = tested on: SK-OV-3 ovarian
HCT-116 colon = tested on: HCT-116 colon
A549 NSCLC = tested on: A549 NSCLC
MOLT-4 leukemia = tested on: MOLT-4 leukemia
786-0 renal = tested on: 786-0 renal
RPMI-8226 leukemia = tested on: RPMI-8226 leukemia

COc1ccc2[nH]cc(-c3cc(N)n4nc(-c5c[nH]c6ccc(OC)cc56)cc4n3)c2c1
3.59 µM: TGI (KM12 colon) | TGI (HCC-2998 colon)
3.72 µM: TGI (OVCAR-8 ovarian)
8.78 µM: TGI (CCRF-CEM leukemia)
14.2 µM: TGI (SNB-19 CNS)
3.34 µM: TGI (HT29 colon)
5.23 µM: TGI (TK-10 renal)
14.3 µM: TGI (NCI/ADR-RES ovarian)
3.17 µM: TGI (UACC-257 melanoma)
5.32 µM: TGI (OVCAR-4 ovarian)
3.83 µM: TGI (OVCAR-3 ovarian)
3.5 µM: TGI (SK-MEL-2 melanoma)
3.13 µM: TGI (COLO 205 colon)
4.98 µM: TGI (HCT-15 colon)
3.26 µM: TGI (SW-620 colon) | TGI (MDA-MB-435)
3.38 µM: TGI (M14 melanoma)
6.31 µM: TGI (OVCAR-5 ovarian)
21.2 µM: TGI (BT-549 breast)
3.49 µM: TGI (SF-295 CNS)
inactive: GI50 (TK-10 renal) 2.27 µM | GI50 (SK-MEL-2 melanoma) 1.79 µM | GI50 (RXF 393 renal) 1.67 µM | GI50 (LOX IMVI melanoma) 2.23 µM | GI50 (SN12C renal) 1.98 µM | GI50 (SNB-19 CNS) 3.25 µM | GI50 (K-562 leukemia) 2.4 µM | GI50 (M14 melanoma) 1.81 µM | GI50 (EKVX NSCLC) 1.73 µM | GI50 (T-47D breast) 1.91 µM | GI50 (CCRF-CEM leukemia) 2.81 µM | GI50 (HCT-15 colon) 1.99 µM | GI50 (SK-MEL-5 melanoma) 1.7 µM | GI50 (IGROV1 ovarian) 2.26 µM | GI50 (OVCAR-5 ovarian) 2.44 µM | GI50 (DU-145 prostate) 1.93 µM | GI50 (UO-31 renal) 1.65 µM | GI50 (OVCAR-3 ovarian) 1.95 µM | GI50 (SW-620 colon) 1.68 µM | GI50 (KM12 colon) 1.88 µM | GI50 (HL-60(TB) leukemia) 1.92 µM | GI50 (SK-MEL-28 melanoma) 1.82 µM | GI50 (BT-549 breast) 5.54 µM | GI50 (HCC-2998 colon) 1.97 µM | GI50 (UACC-257 melanoma) 1.73 µM | GI50 (HT29 colon) 1.79 µM | GI50 (NCI-H522 lung) 1.72 µM | GI50 (COLO 205 colon) 1.65 µM | GI50 (SF-268 CNS) 2.13 µM | GI50 (A498 renal) 1.92 µM | GI50 (SF-295 CNS) 1.87 µM | GI50 (MDA-MB-435) 1.74 µM | GI50 (ACHN renal) 1.85 µM | GI50 (OVCAR-8 ovarian) 1.84 µM | GI50 (OVCAR-4 ovarian) 2.28 µM | GI50 (NCI/ADR-RES ovarian) 3.09 µM
> 100 µM: TGI (K-562 leukemia)
3.85 µM: TGI (LOX IMVI melanoma)
4.77 µM: TGI (SF-268 CNS)
3.45 µM: TGI (ACHN renal)
4.13 µM: TGI (T-47D breast)
3.55 µM: TGI (UO-31 renal)
5.73 µM: TGI (IGROV1 ovarian)
3.58 µM: TGI (EKVX NSCLC) | TGI (DU-145 prostate)
3.31 µM: TGI (SK-MEL-28 melanoma)
4.73 µM: TGI (HL-60(TB) leukemia)
3.23 µM: TGI (RXF 393 renal)
3.91 µM: TGI (SN12C renal)
3.32 µM: TGI (NCI-H522 lung)
3.86 µM: TGI (A498 renal)
3.08 µM: TGI (SK-MEL-5 melanoma)

Cc1ccc2c(n1)C(=O)C(Cl)=C(Nc1ccc(C(=O)OC(C)(C)C)cc1)C2=O
72.8 µM: TGI (MOLT-4 leukemia)
33.9 µM: TGI (HCT-15 colon)
63 µM: TGI (COLO 205 colon)
30.4 µM: TGI (OVCAR-3 ovarian)
28.6 µM: TGI (ACHN renal)
55.7 µM: TGI (SR leukemia)
> 92.5 µM: TGI (SNB-75 CNS) | TGI (TK-10 renal) | TGI (SK-MEL-2 melanoma) | TGI (NCI-H226 lung) | TGI (SN12C renal) | TGI (SNB-19 CNS) | TGI (K-562 leukemia) | TGI (M14 melanoma) | TGI (EKVX NSCLC) | TGI (CCRF-CEM leukemia) | TGI (SF-539 CNS) | TGI (HOP-62 NSCLC) | TGI (NCI-H460 lung) | TGI (SK-MEL-5 melanoma) | TGI (U251 CNS) | TGI (IGROV1 ovarian) | TGI (OVCAR-5 ovarian) | TGI (DU-145 prostate) | TGI (KM12 colon) | TGI (UACC-62 melanoma) | TGI (HS 578T breast) | TGI (BT-549 breast) | TGI (PC-3 prostate) | TGI (HCC-2998 colon) | TGI (UACC-257 melanoma) | TGI (HT29 colon) | TGI (SF-268 CNS) | TGI (MDA-MB-231 breast) | TGI (A498 renal) | TGI (SF-295 CNS) | TGI (SK-OV-3 ovarian) | TGI (MDA-MB-435) | TGI (OVCAR-8 ovarian) | TGI (A549 NSCLC) | TGI (NCI/ADR-RES ovarian) | TGI (786-0 renal) | TGI (RPMI-8226 leukemia)
38.5 µM: TGI (SK-MEL-28 melanoma)
36.7 µM: TGI (HOP-92 NSCLC)
inactive: GI50 (SNB-75 CNS) > 92.5 µM | GI50 (TK-10 renal) > 92.5 µM | GI50 (SK-MEL-2 melanoma) > 92.5 µM | GI50 (RXF 393 renal) 12.8 µM | GI50 (CAKI-1 renal) 14.4 µM | GI50 (NCI-H226 lung) > 92.5 µM | GI50 (LOX IMVI melanoma) 16.9 µM | GI50 (HOP-92 NSCLC) 16.4 µM | GI50 (SN12C renal) > 92.5 µM | GI50 (SNB-19 CNS) > 92.5 µM | GI50 (K-562 leukemia) 3.77 µM | GI50 (M14 melanoma) 29.2 µM | GI50 (SR leukemia) 3.44 µM | GI50 (EKVX NSCLC) > 92.5 µM | GI50 (T-47D breast) 16.6 µM | GI50 (CCRF-CEM leukemia) 5.9 µM | GI50 (SF-539 CNS) > 92.5 µM | GI50 (HOP-62 NSCLC) > 92.5 µM | GI50 (HCT-15 colon) 15.4 µM | GI50 (NCI-H460 lung) > 92.5 µM | GI50 (SK-MEL-5 melanoma) > 92.5 µM | GI50 (U251 CNS) > 92.5 µM | GI50 (IGROV1 ovarian) 71.4 µM | GI50 (OVCAR-5 ovarian) > 92.5 µM | GI50 (DU-145 prostate) > 92.5 µM | GI50 (UO-31 renal) 18.9 µM | GI50 (OVCAR-3 ovarian) 13.8 µM | GI50 (SW-620 colon) 18.5 µM | GI50 (KM12 colon) > 92.5 µM | GI50 (UACC-62 melanoma) > 92.5 µM | GI50 (HL-60(TB) leukemia) 7.65 µM | GI50 (HS 578T breast) > 92.5 µM | GI50 (SK-MEL-28 melanoma) 18.2 µM | GI50 (MCF7 breast) 16 µM | GI50 (BT-549 breast) > 92.5 µM | GI50 (PC-3 prostate) > 92.5 µM | GI50 (HCC-2998 colon) > 92.5 µM | GI50 (UACC-257 melanoma) 31.7 µM | GI50 (HT29 colon) > 92.5 µM | GI50 (MALME-3M melanoma) 15.7 µM | GI50 (NCI-H522 lung) 16.3 µM | GI50 (COLO 205 colon) 21.9 µM | GI50 (SF-268 CNS) > 92.5 µM | GI50 (MDA-MB-231 breast) 30.2 µM | GI50 (A498 renal) > 92.5 µM | GI50 (SF-295 CNS) > 92.5 µM | GI50 (SK-OV-3 ovarian) > 92.5 µM | GI50 (MDA-MB-435) 90.3 µM | GI50 (ACHN renal) 15.8 µM | GI50 (HCT-116 colon) 15.5 µM | GI50 (OVCAR-8 ovarian) > 92.5 µM | GI50 (A549 NSCLC) > 92.5 µM | GI50 (OVCAR-4 ovarian) 12.7 µM | GI50 (NCI/ADR-RES ovarian) > 92.5 µM | GI50 (MOLT-4 leukemia) 4.65 µM | GI50 (786-0 renal) > 92.5 µM | GI50 (RPMI-8226 leukemia) 23.3 µM
30.5 µM: TGI (MALME-3M melanoma)
25.5 µM: TGI (RXF 393 renal)
33 µM: TGI (LOX IMVI melanoma)
53.1 µM: TGI (UO-31 renal)
35.3 µM: TGI (MCF7 breast)
44 µM: TGI (SW-620 colon)
30.6 µM: TGI (CAKI-1 renal)
71.1 µM: TGI (HL-60(TB) leukemia)
32 µM: TGI (HCT-116 colon)
35.7 µM: TGI (NCI-H522 lung)
29.2 µM: TGI (OVCAR-4 ovarian)
55.4 µM: TGI (T-47D breast)
